In one assay the target is human JAK2 (Homo sapiens (Human), UniProt O60674). The following applies: read-out: JAK2 IC50.
The next assay concerns the target human FAK (Homo sapiens (Human), UniProt Q05397). The note with it: read-out: FAK IC50.

The term IC50 denotes the concentration at which inhibition is half-maximal.

The structures appear in SMILES notation.

Chain of human FAK (Q05397 whole entry): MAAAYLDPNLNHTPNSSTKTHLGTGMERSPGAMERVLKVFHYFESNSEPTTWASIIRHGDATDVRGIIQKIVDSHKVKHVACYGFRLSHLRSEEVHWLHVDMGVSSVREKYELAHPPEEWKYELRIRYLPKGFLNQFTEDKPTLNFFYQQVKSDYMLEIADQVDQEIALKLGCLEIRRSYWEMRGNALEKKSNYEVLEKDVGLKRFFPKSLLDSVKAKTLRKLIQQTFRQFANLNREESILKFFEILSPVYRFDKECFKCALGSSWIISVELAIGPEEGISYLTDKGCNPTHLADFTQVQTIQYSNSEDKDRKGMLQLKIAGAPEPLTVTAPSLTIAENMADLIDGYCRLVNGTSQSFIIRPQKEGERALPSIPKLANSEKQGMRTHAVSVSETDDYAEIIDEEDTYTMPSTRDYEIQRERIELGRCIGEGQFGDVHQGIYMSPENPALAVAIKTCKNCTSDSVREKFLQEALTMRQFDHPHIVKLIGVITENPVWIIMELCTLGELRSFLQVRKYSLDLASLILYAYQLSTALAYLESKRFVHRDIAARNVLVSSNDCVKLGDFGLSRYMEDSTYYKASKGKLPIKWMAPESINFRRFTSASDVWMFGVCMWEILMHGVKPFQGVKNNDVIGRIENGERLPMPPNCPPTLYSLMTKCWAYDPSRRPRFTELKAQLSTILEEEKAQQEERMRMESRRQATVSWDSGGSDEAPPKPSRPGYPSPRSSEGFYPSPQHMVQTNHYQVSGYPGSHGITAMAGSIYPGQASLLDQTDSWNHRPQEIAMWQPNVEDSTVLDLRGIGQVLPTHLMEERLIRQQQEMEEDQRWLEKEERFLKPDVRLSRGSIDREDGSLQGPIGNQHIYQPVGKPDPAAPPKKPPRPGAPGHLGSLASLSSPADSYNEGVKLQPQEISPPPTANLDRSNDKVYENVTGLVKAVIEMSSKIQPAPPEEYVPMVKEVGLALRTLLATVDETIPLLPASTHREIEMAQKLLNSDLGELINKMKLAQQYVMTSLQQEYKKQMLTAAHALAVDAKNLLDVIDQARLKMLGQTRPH
Chain of human JAK2 (O60674 815-1132): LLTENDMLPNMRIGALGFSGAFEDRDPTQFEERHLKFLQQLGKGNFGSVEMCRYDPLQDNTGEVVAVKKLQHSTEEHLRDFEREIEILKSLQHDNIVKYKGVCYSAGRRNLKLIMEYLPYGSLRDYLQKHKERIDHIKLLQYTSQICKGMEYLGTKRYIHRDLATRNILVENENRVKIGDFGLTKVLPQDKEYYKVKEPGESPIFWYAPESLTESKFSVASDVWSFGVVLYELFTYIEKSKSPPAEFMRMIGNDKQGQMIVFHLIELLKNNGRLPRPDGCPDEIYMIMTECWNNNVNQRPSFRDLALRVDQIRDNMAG
Protocol for human FAK: The ability of compounds to inhibit the kinase activity of baculovirus-expressed human FAK and PYK2 was measured using the 96-well plate TRF assay system described above for JAK2. […] For the FAK kinase assay, the reaction mixture (total volume=100 μL/well) contained 20 mM HEPES (pH 7.2), 10 μM ATP, 5 mM MgCl2, 0.5 mM DTT, 0.1% BSA, and test compound (diluted in DMSO; 2.5% DMSO final in assay). For PYK2, the 100 μL assay solution consisted of 20 mM HEPES (pH 7.2), 3 μM ATP, 5 mM MnCl2, 0.1% BSA, and test compound (diluted in DMSO; 2.5% DMSO final in assay). Enzyme (10 ng/mL FAK or 25 ng/mL PYK2) was added and the reaction was allowed to proceed at room temperature for 30 min. Detection of the phosphorylated product was performed by adding 100 μL/well of Eu—N1 labeled PY100 antibody diluted 1:75000 in 0.25% BSA in TBS-T (PerkinElmer #AD0041). […] Inhibition data were analyzed using ActivityBase and IC50 curves generated using XLFit.

On to `COc1ccc(C(F)(F)F)cc1-c1cccn2nc(Nc3cccc(N4CCN(C)CC4)c3)nc12` [Example 255, [8-(2-Methoxy-5-trifluoromethyl-phenyl)-[1,2,4]triazolo[1,5-a]pyridin-2-yl]-[3-(4-methyl-piperazine-1-yl)-phenyl]-amine], for which the IC50 at human JAK2 turned out to be 158 nM; on human FAK, 1220 nM.
For `CS(=O)(=O)c1ccc(-c2cccc3nc(Nc4cccc(CN5CCOCC5)c4)nn23)cc1` [Example 117, [5-(4-Methanesulfonyl-phenyl)-[1,2,4]triazolo[1,5-a]pyridin-2-yl]-(3-morpholin-4-ylmethyl-phenyl)-amine], in that order: 0.95 nM and 1470 nM.
For `CN1CCN(c2cccc(Nc3nc4c(-c5ccc(N(C)S(C)(=O)=O)cc5)cccn4n3)c2)CC1` [Example 63, N-Methyl-N-(4-{2-[3-(4-methyl-piperazin-1-yl)-phenylamino]-[1,2,4]triazolo[1,5-a]pyridin-8-yl}-phenyl)-methanesulfonamide], in that order: 0.6 nM and 1350 nM.
For `COc1ccccc1CNc1cccn2nc(Nc3ccc(N4CCN(C)CC4)cc3)nc12` [Example 387, N(8)-(2-Methoxy-benzyl)-N(2)-[4-(4-methyl-piperazin-1-yl)-phenyl]-[1,2,4]triazolo[1,5-a]pyridine-2,8-diamine], in that order: 12.3 nM and 553 nM.
With `CS(=O)(=O)c1ccc(-c2cccn3nc(Nc4ccc5c(c4)CCNCC5)nc23)c(OCC(F)F)c1` [Example 370, {8-[2-(2,2-Difluoro-ethoxy)-4-methanesulfonyl-phenyl]-[1,2,4]triazolo[1,5-a]pyridin-2-yl}-(2,3,4,5-tetrahydro-1H-3-benzazepin-7-yl)-amine], the IC50 is 61.9 nM at human JAK2 and 999 nM at human FAK.
On the same counts, the results for `FC(F)(F)c1cccc(-c2cccn3nc(Nc4ccc5c(c4)CCNCC5)nc23)c1` [Example 375, (2,3,4,5-Tetrahydro-1H-3-benzazepin-7-yl)-[8-(3-trifluoromethyl-phenyl)-[1,2,4]triazolo[1,5-a]pyridin-2-yl]-amine] are 42.5 nM and 422 nM.
For `CN1CCN(c2ccc(Nc3nc4c(-c5ccc(S(C)(=O)=O)cc5)cc(C(F)(F)F)cn4n3)cn2)CC1` [Example 104, [8-(4-Methanesulfonyl-phenyl)-6-trifluoromethyl-[1,2,4]triazolo[1,5-a]pyridin-2-yl]-[6-(4-methyl-piperazin-1-yl)-pyridin-3-yl]-amine], in that order: 928 nM and 669 nM.
In the case of `CN(c1ncccc1Nc1cccn2nc(Nc3ccc(OCCN4CCCC4)cc3)nc12)S(C)(=O)=O` [Example 132, N-Methyl-N-(3-{2-[4-(2-pyrrolidin-1-yl-ethoxy)-phenylamino]-[1,2,4]triazolo[1,5-a]pyridin-8-ylamino}-pyridin-2-yl)-methanesulfonamide], the values for the IC50 on human JAK2 and at human FAK were 33.1 nM and 3000 nM, respectively.
On the same counts, the results for `CS(=O)(=O)c1ccc(-c2cccn3nc(Nc4cccc(CN5CCS(=O)(=O)CC5)c4)nc23)cc1` [Example 120, N-{3-[(1,1-dioxidothiomorpholin-4-yl)methyl]phenyl}-8-[4-(methylsulfonyl)phenyl][1,2,4]triazolo[1,5-a]pyridin-2-amine] are 0.67 nM and 2000 nM.
On the same counts, the results for `COc1ccccc1CNc1cccn2nc(Nc3cccnc3)nc12` [Example 400, N(8)-(2-Methoxy-benzyl)-N(2)-pyridin-3-yl-[1,2,4]triazolo[1,5-a]pyridine-2,8-diamine] are 32.3 nM and 3120 nM.
On the same counts, the results for `CN1CCN(c2cncc(Nc3nc4c(NCc5ccccc5N(C)S(C)(=O)=O)cccn4n3)n2)CC1` [Example 389, N-Methyl-N-(2-{[2-(4-methyl-3,4,5,6-tetrahydro-2H-[1,2′]bipyrazinyl-6′-ylamino)-[1,2,4]triazolo[1,5-a]pyridin-8-ylamino]-methyl}-phenyl)-methanesulfonamide] are 6500 nM and 1060 nM.
`CN(c1ncccc1CNc1cccn2nc(Nc3ccc(N4CCN(CCO)CC4)cc3)nc12)S(C)(=O)=O` [Example 155, N-{3-[(2-{4-[4-(2-Hydroxy-ethyl)-piperazin-1-yl]-phenylamino}-[1,2,4]triazolo[1,5-a]pyridin-8-ylamino)-methyl]-pyridin-2-yl}-N-methyl-methanesulfonamide]: the half-maximal inhibitory concentration (IC50) on human JAK2 amounted to 36 nM; on human FAK, 379 nM.
On the same counts, the results for `FC(F)COc1ccc(Cl)cc1-c1cccn2nc(Nc3ccc4c(c3)CCNCC4)nc12` [Example 377, {8-[5-Chloro-(2,2-difluoro-ethoxy)-phenyl]-[1,2,4]triazolo[1,5-a]pyridin-2-yl}-(2,3,4,5-tetrahydro-1H-3-benzazepin-7-yl)-amine] are 44 nM and 443 nM.
For `CN1CCN(c2ccc(Nc3nc4c(NCc5cccnc5N(C)S(C)(=O)=O)cccn4n3)cc2)CC1` [Example 122, N-Methyl-N-[3-({2-[4-(4-methyl-piperazin-1-yl)-phenylamino]-[1,2,4]triazolo[1,5-a]pyridin-8-ylamino}-methyl)-pyridin-2-yl]-methanesulfonamide], in that order: 20.7 nM and 30 nM.
Take `COc1ccc(-c2cccn3nc(Nc4ccc(N5CCOCC5)cc4)nc23)cn1` [Example 8, [8-(6-Methoxy-pyridin-3-yl)-[1,2,4]triazolo[1,5-a]pyridin-2-yl]-(4-morpholin-4-yl-phenyl)-amine]: the IC50 turned out to be 13.4 nM at human JAK2 and 1480 nM at human FAK.
As for `CN1CCN(c2cccc(Nc3nc4c(OCc5cccc(Cl)c5)cccn4n3)c2)CC1` [Example 261, [8-(3-Chloro-benzyloxy)-[1,2,4]triazolo[1,5-a]pyridin-2-yl]-[3-(4-methyl-piperazin-1-yl)-phenyl]-amine], the 50% inhibitory concentration (IC50) on human JAK2 worked out at 99.5 nM; on human FAK it was 1590 nM.
On to `COc1ccc(Nc2nc3c(-c4cnn(S(C)(=O)=O)c4)cccn3n2)cc1` [Example 42, [8-(1-Methanesulfonyl-1H-pyrazol-4-yl)-[1,2,4]triazolo[1,5-a]pyridin-2-yl]-(4-methoxy-phenyl)-amine], for which the IC50 at human JAK2 is 3 nM; on human FAK, 507 nM.
For the compound `CN(C)C(=O)CN1CCc2ccc(Nc3nc4c(-c5cc(C(F)F)ccc5OCC(F)F)cccn4n3)cc2CC1` [Example 385, 2-(7-{8-[2-(2,2-difluoro-ethoxy)-5-difluoromethyl-phenyl]-[1,2,4]triazolo[1,5-a]pyridin-2-ylamino}-1,2,4,5-tetrahydro-3-benzazepin-3-yl)-N,N-dimethyl-acetamide], the concentration for half-maximal inhibition (IC50) at human JAK2 amounted to 270 nM; at human FAK, 1120 nM.
On the same counts, the results for `CS(=O)(=O)c1ccc(-c2cccn3nc(NCCc4cccnc4)nc23)cc1` [Example 407, [8-(4-Methanesulfonyl-phenyl)-[1,2,4]triazolo[1,5-a]pyridin-2-yl]-(2-pyridin-3-yl-ethyl)-amine] are 1980 nM and 10000 nM.
For `CCn1cc(Nc2nc3c(-c4ccc(S(C)(=O)=O)cc4)cccn3n2)cn1` [Example 209, (1-Ethyl-1H-pyrazol-4-yl)-[8-(4-methanesulfonyl-phenyl)-[1,2,4]triazolo[1,5-a]pyridin-2-yl]-amine], in that order: 1.88 nM and 10000 nM.
For `CN(c1ncccc1CNc1cccn2nc(Nc3ccc(OCCN4CCCC4)cc3)nc12)S(C)(=O)=O` [Example 124, N-Methyl-N-[3-({2-[4-(2-pyrrolidin-1-yl-ethoxy)-phenylamino]-[1,2,4]triazolo[1,5-a]pyridin-8-ylamino}-methyl)-pyridin-2-yl]-methanesulfonamide], in that order: 41.2 nM and 59.7 nM.
`COc1ccccc1-c1cccn2nc(Nc3ccc(N4CCN(C)CC4)cc3)nc12` [Example 55, [8-(2-Methoxy-phenyl)-[1,2,4]triazolo[1,5-a]pyridin-2-yl]-[4-(4-methyl-piperazin-1-yl)-phenyl]-amine]: the IC50 amounted to 38.4 nM on human JAK2 and 3000 nM at human FAK.
On the same counts, the results for `COc1cc(N2CCN(C)CC2)ccc1Nc1nc2c(NCc3cccnc3N(C)S(C)(=O)=O)cccn2n1` [Example 137, N-[3-({2-[2-Methoxy-4-(4-methyl-piperazin-1-yl)-phenylamino]-[1,2,4]triazolo[1,5-a]pyridin-8-ylamino}-methyl)-pyridin-2-yl]-N-methyl-methanesulfonamide] are 3000 nM and 39.7 nM.
On the same counts, the results for `CC(C)(O)CN1CCN(c2cccc(Nc3nc4c(-c5ccc(S(C)(=O)=O)cc5)cccn4n3)c2)CC1` [Example 144, 1-(4-{3-[8-(4-Methanesulfonyl-phenyl)-[1,2,4]triazolo[1,5-a]pyridin-2-ylamino]-phenyl}-piperazin-1-yl)-2-methyl-propan-2-ol] are 2.61 nM and 2050 nM.
On the same counts, the results for `CN1CCN(c2ccc(Nc3nc4cccc(-c5ccc(S(C)(=O)=O)cc5)n4n3)cc2)CC1` [Example 81, [5-(4-Methanesulfonyl-phenyl)-[1,2,4]triazolo[1,5-a]pyridin-2-yl]-[4-(4-methyl-piperazin-1-yl)-phenyl]-amine] are 6.9 nM and 421 nM.
With `CN1CCN(c2ccc(Nc3nc4c(NCc5cccc(S(C)(=O)=O)c5)cccn4n3)cc2)CC1` [Example 160, N(8)-(3-Methanesulfonyl-benzyl)-N(2)-[4-(4-methyl-piperazin-1-yl)-phenyl]-[1,2,4]triazolo[1,5-a]pyridine-2,8-diamine], the IC50 was 262 nM on human JAK2 and 10000 nM on human FAK.
As to `CC(Nc1cccn2nc(Nc3ccc(N4CCN(C)CC4)cc3)nc12)c1ccccc1N(C)S(C)(=O)=O` (stereo not drawn) [Example 197, N-Methyl-N-[2-(1-{2-[4-(4-methyl-piperazin-1-yl)-phenylamino]-[1,2,4]triazolo[1,5-a]pyridin-8-ylamino}-ethyl)-phenyl]-methanesulfonamide], the IC50 on human JAK2 was 418 nM; on human FAK it was 999 nM.

(Values after US8501936B2 (priority 2009, dated 2013).)
